Experiment [1] deals with human pancreatic cancer cells (Panc-1). The experiment is described as follows: In vivo anti-cancer effect in nude mice subcutaneously transplanted with human pancreatic cancer cells (Panc-1). Details: species or system Athymic BALB/c nude mice. The following applies: Panc-1 xenograft, measured for 4 weeks; gemcitabine 40 mg/kg Q3D x 3 weeks i.v.; conjugate or PEG interferon alpha 30 mcg/kg QW x 3 weeks s.c.; combination at the same doses. (In xenograft studies the graft and the host belong to different species.)
Method: 5-week old Athymic BALB/c nude mice were subcutaneously injected with 1×10^8/4 mL of Panc-1 cells cultured in vitro, and then cultured. Thereafter, the mice were subcutaneously transplanted with solid cancer having a size of 30 mm^2. Then, the mice were divided into 5 groups (G1, G2, G3, G4, G5) of six mice each according to the size of cancer subcutaneously transplanted.
Single administrations of a control group (Vehicle), gemcitabine (40 mg/kg, Q3D, 3 weeks, intravenous injection), PEG-modified interferon alpha (30 mcg/kg, QW×3 weeks, subcutaneous injection), and interferon alpha conjugate of the present invention (30 mcg/kg, QW, 3 weeks, subcutaneous injection), and co-administration of gemcitabine (40 mg/kg, Q3D, 3 weeks, intravenous injection) and interferon alpha conjugate of the present invention (30 mcg/kg, QW, 3 weeks, subcutaneous injection) to the groups were performed. After administration of the experimental substances for 3 weeks, changes in the tumor size of each group were measured for 4 weeks, and tumor inhibition rate relative to the control group was determined (Table 4).

The next experiment concerns pancreatic cancer. The following applies: cited from earlier work.
Experiment [2] concerns human pancreatic cancer cells (Miapaca-2). Kind of experiment: In vivo anti-cancer effect in nude mice subcutaneously transplanted with human pancreatic cancer cells (Miapaca-2). Details: species or system Athymic BALB/c nude mice. Particulars: Miapaca-2 xenograft, measured for 4 weeks; gemcitabine 40 mg/kg Q3D x 4 weeks i.v.; conjugate or PEG interferon alpha 30 mcg/kg QW x 4 weeks s.c.; combinations at the same doses.
Method: 5-week old Athymic BALB/c nude mice were subcutaneously injected with 1×10^8/4 mL of Miapaca-2 cells cultured in vitro, and then cultured. Thereafter, the mice were subcutaneously transplanted with solid cancer having a size of 30 mm^2. Then, the mice were divided into 5 groups (G1, G2, G3, G4, G5) of seven mice each according to the size of cancer subcutaneously transplanted.
Single administrations of a control group (Vehicle), gemcitabine (40 mg/kg, Q3D, 3 weeks, intravenous injection), PEG-modified interferon alpha (30 mcg/kg, QW×4 weeks, subcutaneous injection), and interferon alpha conjugate of the present invention (30 mcg/kg, QW, 4 weeks, subcutaneous injection), and co-administration of gemcitabine (40 mg/kg, Q3D, 4 weeks, intravenous injection) and interferon alpha conjugate of the present invention (30 mcg/kg, QW, 4 weeks, subcutaneous injection) to the groups were performed. After administration of the experimental substances for 3 weeks, changes in the tumor size of each group were measured for 4 weeks, and tumor inhibition rate relative to the control group was determined (Table 5).

The subject of experiment [3] is human pancreatic cancer cells (BxPC3). Kind of experiment: In vivo anti-cancer effect in nude mice subcutaneously transplanted with human pancreatic cancer cells (BxPC3). Also noted: species or system Athymic BALB/c nude mice. The following applies: BxPC3 xenograft, 4 weeks; gemcitabine 30 mg/kg Q3D x 4 weeks i.v.; conjugate or PEG interferon alpha 30 mcg/kg QW x 4 weeks s.c.; combination at the same doses. The method, then: In order to measure the in vivo anti-cancer effect of the interferon alpha conjugate prepared in Example 1, changes in the tumor size were examined in the mice subcutaneously transplanted with human pancreatic cancer cells (BxPC3). 5-week old Athymic BALB/c nude mice were subcutaneously injected with 1×10^8/4 mL of BxPC3 cells cultured in vitro, and then cultured. […] After administration of the experimental substances, changes in the tumor size of each group were measured for 4 weeks, and tumor inhibition rate relative to the control group was determined (Table 3).

The subject of another experiment is Daudi cells. Kind of experiment: In vitro test on anti-proliferative efficacy in Daudi cells (CCK-8). The following applies: inhibition of Daudi cell proliferation, incubation 72 hours, CCK-8 absorbance at 450 nm. The experiment is classed as cell-based, human. The procedure:
Daudi cells were used, and RPMI1640 supplemented with 10% FBS and 10% PS was used as a culture medium and an experimental medium. Interferon alpha and interferon alpha conjugate of the present invention were diluted 4-fold with the experimental medium for 10 concentrations in 96-well round bottom plates. Each 50 μL of the diluted experimental medium was transferred to 96-well flat bottom plates. Daudi cells were centrifuged at 1000 rpm for 5 minutes, and then washed with 50 mL of PBS in a cornical tube. The cells were centrifuged at 1000 rpm for 5 minutes, and the experimental medium was added thereto, followed by counting the number of cells. Daudi cells were diluted to a concentration of 5×10^5 cell/mL, and then 100 μL was added to each well, followed by incubation at 37° C. for 72 hours. Then, 20 μL of CCK-8 was added to each well, and after 3 hours, absorbance was measured at 450 nm.
In vitro inhibitory effects of interferon alpha and interferon alpha conjugate of the present invention (long-acting interferon alpha conjugate) on cancer cell proliferation were examined by EC50 (Table 1, FIG. 1).

Experiment [4] relates to human ovarian cancer cells (SK-OV-3). The experiment is described as follows: In vivo anti-cancer effect in nude mice subcutaneously transplanted with human ovarian cancer cells (SK-OV-3). Details: species or system Athymic BALB/c nude mice. The following applies: SK-OV-3 xenograft, 4 weeks, subcutaneous injection; interferon alpha 30 mcg/kg (Q1D*5)*4 weeks; PEG interferon alpha and conjugate 150 mcg/kg QW x 4 weeks. The method, then:
In order to measure the in vivo anti-cancer effect of the interferon alpha conjugate prepared in Example 1, changes in the tumor size were examined in the mice subcutaneously transplanted with human ovarian cancer cells (SK-OV-3).
5-week old Athymic BALB/c nude mice were subcutaneously injected with 1×10^8/4 mL of SK-OV-3 cells cultured in vitro, and then cultured. Thereafter, the mice were subcutaneously transplanted with solid cancer having a size of 30 mm^2. Then, the mice were divided into 4 groups (G1, G2, G3, G4) of five mice each according to the size of cancer subcutaneously transplanted.
Single administrations of a control group (Vehicle), interferon alpha (30 mcg/kg, Q1D×5 times×4 weeks, subcutaneous injection), PEG-modified interferon alpha (150 mcg/kg, QW×4 weeks, subcutaneous injection), and interferon alpha conjugate of the present invention (150 mcg/kg, QW×4 weeks, subcutaneous injection) to the groups were performed. After administration of the experimental substances, changes in the tumor size of each group were measured for 4 weeks, and tumor inhibition rate relative to the control group was determined (Table 2).

As a reminder, the EC50 is the midpoint of the concentration-response curve. A low value points to higher potency in that assay.

For `Nc1ccn([C@@H]2O[C@H](CO)[C@@H](O)C2(F)F)c(=O)n1` [Gemcitabine, 2′-deoxy-2′,2′-difluoro cytidine], the “Tumor inhibition rate (%, relative to vehicle)” value in experiment [1] stood at 60%; in experiment [2], 17%; in experiment [3] it was 20%. Moreover, in the experiment on pancreatic cancer (advanced pancreatic cancer, single administration), the median overall survival is reported as 5.7 months. The “1-year survival rate of pancreatic cancer patients” value in the experiment on pancreatic cancer (metastatic pancreatic cancer) was 18%.

“Interferon alpha: interferon alpha prepared according to Korean Patent No. 10-0360594; human interferon alpha-2b”: the EC50 in the experiment on Daudi cells was determined as 0.0217 ng/mL. Also, the “Tumor inhibition rate (%, relative to vehicle)” value in experiment [4] is listed as 63.84%.

Values taken from patent US9789202B2, “Method for treating cancer using an interferon alpha conjugate” (HANMI SCIENCE CO., LTD., priority 2011, dated 2017).
